The values that follow come from patent publication US20100069366A1, “ANTIBACTERIAL QUINOLINE DERIVATIVES” (JANSSEN-CILAG, priority 2006, published 2010).

One data set relates to M. Smegmatis ATCC607. The data set can be described thus: In-vitro anti-bacterial activity against strain M. smegmatis ATCC607. In kind it is cell-based. To be noted: for IC90: Mycolicibacterium smegmatis. Here is the method: Flat-bottom, sterile 96-well plastic microtiter plates were filled with 180 μl of sterile deionized water, supplemented with 0.25% BSA. Subsequently, stock solutions (7.8× final test concentration) of compounds were added in 45 μl volumes to a series of duplicate wells in column 2 so as to allow evaluation of their effects on bacterial growth. Serial five-fold dilutions (45 μl in 180 μl) were made directly in the microtiter plates from column 2 to 11 using a customised robot system (Zymark Corp., Hopkinton, Mass.). Pipette tips were changed after every 3 dilutions to minimize pipetting errors with high hydrophobic compounds. Untreated control samples with (column 1) and without (column 12) inoculum were included in each microtiter plate. Approximately 250 CFU per well of bacteria inoculum, in a volume of 100 μl in 2.8× Mueller-Hinton broth medium, was added to the rows A to H, except column 12. The same volume of broth medium without inoculum was added to column 12 in row A to H. The cultures were incubated at 37° C. for 48 hours in a humidified 5% CO2 atmosphere (incubator with open air valve and continuous ventilation). At the end of incubation, two days after inoculation, the bacterial growth was quantitated fluorometrically. Therefore Alamar Blue (10×) was added to all wells in a volume of 20 μl and plates were incubated for another 2 hours at […]
The fluorescence was read in a computer-controlled fluorometer (Cytofluor, Biosearch) at an excitation wavelength of 530 nm and an emission wavelength of 590 nm (gain 30).

Data set [1] relates to Streptococcus pneumoniae (ATCC6305). As to the kind of experiment: Microtitre plate assay, IC90 determination, SPN 6305. In kind it is cell-based. To be noted: 90% inhibitory concentration for bacterial growth, resazurin. Here is the method: (§1) The bacteria used in this study were grown overnight in flasks containing 100 ml Mueller-Hinton Broth (Becton Dickinson—cat. no. 275730) in sterile de-ionized water, with shaking, at 37° C. Stocks (0.5 ml/tube) were stored at −70° C. until use. Bacteria titrations were performed in microtiter plates to detect the TCID50, in which the TCID50 represents the dilution that gives rise to bacterial growth in 50% of inoculated cultures.
(§2) In general, an inoculum level of approximately 100 TCID50 was used for susceptibility testing.
(§3) Flat-bottom, sterile 96-well plastic microtiter plates were filled with 180 μl of sterile deionized water, supplemented with 0.25% BSA. Subsequently, stock solutions (7.8× final test concentration) of compounds were added in 45 μl volumes in column 2 Serial five-fold dilutions (45 μl in […]) were made directly in the microtiter plates from column 2 to reach column 11. Untreated control samples with (column 1) and without (column 12) inoculum were included in each microtiter plate. Depending on the bacteria type, approximately 10 to 60 CFU per well of bacteria inoculum (100 TCID50), in a volume of 100 μl in 2.8× Mueller-Hinton broth medium, was added to the rows A to H, except column 12. The same volume of broth medium without inoculum was added to column 12 in row A to H. The cultures were incubated at 37° C. for 24 hours under a normal atmosphere (incubator with open air valve and continuous ventilation). At the end of incubation, one day after inoculation, the bacterial growth was quantitated fluorometrically. Therefore resazurin (0.6 mg/ml) was added in a volume of 20 μl to all wells 3 hours after inoculation, and the plates were re-incubated overnight. A change in colour from blue to pink indicated the growth of bacteria. The fluorescence was read in a computer-controlled fluorometer (Cytofluor Biosearch) at an excitation wavelength of 530 nm and an emission wavelength of 590 nm. The % growth inhibition achieved by the compounds was calculated according to standard methods.
A general note: The colour change of resazurin is a common sign of viable cells or microbes.

Data set [2] has as its system Staphylococcus aureus (ATCC29213). As to the kind of experiment: Microtitre plate assay, IC90 determination, STA 29213. It counts as cell-based. To be noted: Staphylococcus aureus ATCC29213, 90% inhibitory concentration for bacterial growth, resazurin; for IC90: read-out: IC90 (μg/ml) STA 29213. Here is the method:
as §1, §2, §3

The test system of data set [3] is Streptococcus pyogens (ATCC8668). The data set can be described thus: Microtitre plate assay, IC90 determination, SPY 8668. In kind it is cell-based. On the procedure: as §1, §2, §3
The subject of data set [4] is Pseudomonas aeruginosa (ATCC27853). The data set can be described thus: Microtitre plate assay, IC90 determination, PAE 27853. In kind it is cell-based. On the procedure: as §1, §2, §3
The test system of data set [5] is Staphylococcus aureus (ATCC25923). As to the kind of experiment: Microtitre plate assay, IC90 determination, STA 25923. In kind it is cell-based. On the procedure: as §1, §2, §3
The test system of data set [6] is methicilline resistant Staphylococcus aureus (MRSA) (a clinical isolate from the University of Antwerp). The data set can be described thus: Microtitre plate assay, IC90 determination, STA RMETH. In kind it is cell-based. To be noted: 90% inhibitory concentration for bacterial growth, resazurin; for IC90: Staphylococcus aureus, read-out: IC90 (μg/ml) STA RMETH. Here is the method: as §1, §2, §3

The test system of data set [7] is Enterococcus faecalis (ATCC29212). The data set can be described thus: Microtitre plate assay, IC90 determination, EFA 29212. In kind it is cell-based. On the procedure:
as §1, §2, §3

Setting [8] is: ATCC607, 90% inhibitory concentration for bacterial growth, 48 hours, Alamar Blue fluorescence, read-out: M. smegmatis IC90.
Where [9] appears, read: Streptococcus pneumoniae ATCC6305, read-out: IC90 (μg/ml) SPN 6305.
The mark [10] stands for this setting: Streptococcus pyogens ATCC8668, 90% inhibitory concentration for bacterial growth, resazurin, read-out: IC90 (μg/ml) SPY 8668.
Setting [11] is: Pseudomonas aeruginosa ATCC27853, 90% inhibitory concentration for bacterial growth, resazurin, read-out: IC90 (μg/ml) PAE 27853.
Where [12] appears, read: Staphylococcus aureus ATCC25923, 90% inhibitory concentration for bacterial growth, resazurin, read-out: IC90 (μg/ml) STA 25923.
Setting [13] is: Enterococcus faecalis ATCC29212, 90% inhibitory concentration for bacterial growth, resazurin, read-out: IC90 (μg/ml) EFA 29212.
[14] abbreviates: Streptococcus pyogens ATCC8668, 90% inhibitory concentration for bacterial growth, resazurin.
Setting [15] is: Pseudomonas aeruginosa ATCC27853, 90% inhibitory concentration for bacterial growth, resazurin.
Setting [16] is: 90% inhibitory concentration for bacterial growth, 48 hours, Alamar Blue fluorescence.
Where [17] appears, read: Streptococcus pneumoniae ATCC6305.
[18] abbreviates: Enterococcus faecalis ATCC29212, 90% inhibitory concentration for bacterial growth, resazurin.

Each structure is given as a SMILES string. ≈ marks a conversion by molar mass, not a printed value. Read-outs that look alike come from different tables or passages of the source.

Turning to `COc1nc2ccc(Br)cc2cc1C(/C(=C/CN(C)C)CCc1ccccc1)c1ccccc1` (stereo not shown) [Compound 8], the melting point – broadly, the temperature, or range, at which the solid turns liquid – is 128 °C. Also, in the data set on M. Smegmatis ATCC607 (setting [8]), the IC90 turned out to be 1.63 µg/mL (≈ 3.16 µM). Also, in data set [1] (setting [9]), the IC90 worked out at 2.05 µg/mL (≈ 3.98 µM). Moreover, in data set [2], the IC90 turned out to be 8.17 µg/mL (≈ 15.8 µM).

Consider `COc1nc2ccc(Br)cc2cc1/C(=C(/CCN(C)C)c1cccc2ccccc12)c1ccccc1` [Compound 9], for which the IC90 in [3] (setting [10]) was 10.7 µg/mL (≈ 19.9 µM); in [4] (setting [11]), 9.56 µg/mL (≈ 17.8 µM); in data set [5] (setting [12]), 5.38 µg/mL (≈ 10 µM); in the data set with M. Smegmatis ATCC607 (setting [8]), 1.7 µg/mL (≈ 3.16 µM); in data set [1] (setting [9]), 9.56 µg/mL (≈ 17.8 µM); in data set [6], 3.81 µg/mL (≈ 7.09 µM). Moreover, the IC90 in data set [2] was determined as 2.69 µg/mL (≈ 5 µM); in data set [7] (setting [13]) it was 10.7 µg/mL (≈ 19.9 µM).

For the compound `COc1nc2ccc(Br)cc2cc1C(/C(=C/CN(C)C)c1cccc2ccccc12)c1ccccc1` (stereo not shown) [Compound 10], the IC90 amounted to 9.56 µg/mL (≈ 17.8 µM) in data set [3] (setting [10]); 21.4 µg/mL (≈ 39.8 µM) in data set [4] (setting [11]); 4.27 µg/mL (≈ 7.94 µM) in [5] (setting [12]); 0.43 µg/mL (≈ 0.8 µM) in the data set with M. Smegmatis ATCC607 (setting [8]); 12 µg/mL (≈ 22.4 µM) in [1] (setting [9]); 12 µg/mL (≈ 22.4 µM) in data set [6]. In addition, the results for the IC90 in data set [2] and in data set [7] (setting [13]) were 4.79 µg/mL (≈ 8.91 µM) and 5.38 µg/mL (≈ 10 µM), respectively.

Regarding `COc1nc2ccc(Br)cc2cc1C(/C(=C/CN(C)C)CCc1ccccc1)c1ccccc1` (stereo not shown) [Compound 13], the IC90 in data set [3] (Streptococcus, ATCC8668, read-out: IC90 (μg/ml) SPY 8668) was 9.73 µg/mL (≈ 18.9 µM); in data set [4] (Pseudomonas aeruginosa, ATCC27853, read-out: IC90 (μg/ml) PAE 27853) it was 12.2 µg/mL (≈ 23.7 µM); in [5] (Staphylococcus aureus, ATCC25923, read-out: IC90 (μg/ml) STA 25923) it was 10.9 µg/mL (≈ 21.2 µM); in the data set with M. Smegmatis ATCC607 (ATCC607, 48 h, read-out: M. smegmatis IC90 (μg/ml), 90% inhibitory concentration for bacterial growth, Alamar Blue fluorescence) it was 1.73 µg/mL (≈ 3.36 µM); in data set [1] (Streptococcus pneumoniae, ATCC6305, read-out: IC90 (μg/ml) SPN 6305, Streptococcus pneumoniae ATCC6305) it was 8.67 µg/mL (≈ 16.8 µM); in [7] (Enterococcus faecalis, ATCC29212, read-out: IC90 (μg/ml) EFA 29212) it was 12.2 µg/mL (≈ 23.7 µM).

On to `COc1nc2ccc(Br)cc2cc1C(/C(=C/CN(C)C)c1ccsc1)c1ccccc1` (stereo not shown) [Compound 17], for which the IC90 in [3] (setting [10]) was 19.6 µg/mL (≈ 39.8 µM); in data set [4] (setting [11]), 44 µg/mL (≈ 89.1 µM); in the data set on M. Smegmatis ATCC607 (setting [8]) it was 39.2 µg/mL (≈ 79.4 µM); in data set [1] (setting [9]), 7.82 µg/mL (≈ 15.8 µM); in data set [2] it was 15.6 µg/mL (≈ 31.6 µM); in data set [7] (setting [13]) it was 39.2 µg/mL (≈ 79.4 µM).

In the case of `COc1nc2ccc(Br)cc2cc1C(=C(CCN(C)C)c1ccccc1)c1ccccc1` [Compound 36], in data set [3] (setting [14]), the “IC90 (μg/ml) SPY 8668” value turned out to be 9.73 µg/mL (≈ 20 µM). In addition, the “IC90 (μg/ml) PAE 27853” value in [4] (setting [15]) worked out at 12.24 µg/mL (≈ 25.1 µM). Besides, the “IC90 (μg/ml) STA 25923” value in [5] (Staphylococcus aureus ATCC25923, 90% inhibitory concentration for bacterial growth, resazurin) is 10.91 µg/mL (≈ 22.4 µM). For the same compound, the “M. smegmatis IC90” value in the data set with M. Smegmatis ATCC607 (setting [16]) turned out to be 1.94 µg/mL. Further, the “IC90 (μg/ml) SPN 6305” value in data set [1] (setting [17]) was 5.47 µg/mL (≈ 11.2 µM). In addition, the “IC90 (μg/ml) STA RMETH” value in [6] came to 12.24 µg/mL (≈ 25.1 µM). In addition, the “IC90 (μg/ml) STA 29213” value in [2] came to 9.73 µg/mL (≈ 20 µM). Moreover, the “IC90 (μg/ml) EFA 29212” value in data set [7] (setting [18]) worked out at 12.24 µg/mL (≈ 25.1 µM).

For `COc1nc2ccc(Br)cc2cc1C(=C(CCN(C)C)c1cccc(F)c1)c1ccccc1` [Compound 38], the “IC90 (μg/ml) SPY 8668” value in data set [3] (setting [14]) turned out to be 3.58 µg/mL (≈ 7.08 µM). Also, the “IC90 (μg/ml) PAE 27853” value in data set [4] (setting [15]) was 8.99 µg/mL (≈ 17.8 µM). For the same compound, the “M. smegmatis IC90” value with M. Smegmatis ATCC607 (setting [16]) came to 8.01 µg/mL. For the same compound, the “IC90 (μg/ml) SPN 6305” value in [1] (setting [17]) is 8.01 µg/mL (≈ 15.8 µM). Also, in data set [2], the “IC90 (μg/ml) STA 29213” value stood at 10.08 µg/mL (≈ 19.9 µM). Further, in data set [7] (setting [18]), the “IC90 (μg/ml) EFA 29212” value is 8.01 µg/mL (≈ 15.8 µM).
